Assay results published in patent US12180187B2, “1-phenyl-5-azinylpyrazolyl-3-oxyalkyl acids and their use for controlling unwanted plant growth” (BAYER AKTIENGESELLSCHAFT, priority 2019, dated 2024).

Legend:
ECHCG = assay: Pre-emergence action against ECHCG, 1280 g/ha; type: in vivo, Echinochloa crus-galli; details: visual scoring after about 3 weeks vs untreated controls, 100% = plants have died, 0% = like control plants; for pest or weed control at 1280 g/ha: Echinochloa crus-galli, 504 h
Procedure, shortened: (§1)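 Visual % scoring, roughly 3 weeks post-application, against untreated controls; 100% means plants died. Treatment went onto the soil covering sown seeds (sandy loam), as aqueous suspension or emulsion plus 0.5% additive.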

SETVI [1] = assay: Pre-emergence action against SETVI, 1280 g/ha; type: in vivo, Setaria viridis; details: visual scoring after about 3 weeks vs untreated controls, 100% = plants have died, 0% = like control plants; for pest or weed control at 1280 g/ha: Setaria viridis, 504 h
Procedure, shortened: as §1

DIGSA = assay: Pre-emergence action at 320 g/ha against DIGSA; type: in vivo, Digitaria sanguinalis; details: visual scoring after about 3 weeks vs untreated controls; for pest or weed control at 320 g/ha: Digitaria sanguinalis, 504 h
Procedure, shortened: (§2)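 WP/EC formulations applied pre-emergence to covering soil, water rate 600 l/ha, 0.5% additive. Greenhouse, ~3 weeks. Visual % damage vs untreated (0–100%).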

POAAN [2] = assay: Pre-emergence action against POAAN, 1280 g/ha; type: in vivo, Poa annua; details: visual scoring after about 3 weeks vs untreated controls, 100% = plants have died, 0% = like control plants; for pest or weed control at 1280 g/ha: Poa annua, 504 h
Procedure, shortened: as §1

SETVI [3] = assay: Pre-emergence action at 320 g/ha against SETVI; type: in vivo, Setaria viridis; details: visual scoring after about 3 weeks vs untreated controls; for pest or weed control at 320 g/ha: Setaria viridis, 504 h
Procedure, shortened: as §2

STEME [4] = assay: Pre-emergence action against STEME, 1280 g/ha; type: in vivo, Stellaria media; details: scored visually after about 3 weeks vs untreated controls (100% = plants have died); for pest or weed control at 1280 g/ha: Stellaria media, 504 h
Procedure, shortened: as §1

MATIN = assay: Pre-emergence action against MATIN, 1280 g/ha; type: in vivo, Tripleurospermum inodorum (Matricaria inodora); details: scored visually after about 3 weeks vs untreated controls (100% = plants have died); for pest or weed control at 1280 g/ha: Tripleurospermum inodorum, 504 h
Procedure, shortened: as §1

AMARE [5] = assay: Pre-emergence action at 320 g/ha against AMARE; type: in vivo, Amaranthus retroflexus; details: visual scoring after about 3 weeks vs untreated controls; for pest or weed control at 320 g/ha: Amaranthus retroflexus, 504 h
Procedure, shortened: as §2

POAAN [6] = assay: Post-emergence action against POAAN, 1.28 kg/ha; type: in vivo, Poa annua; details: dosage 1280 g/ha, visual rating about 3 weeks after treatment vs untreated controls; for pest or weed control at 1280 g/ha: Poa annua, 504 h
Procedure, shortened: (§3)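 Herbicidal action is estimated by eye after about three weeks under optimum greenhouse conditions, on a 0–100% scale against untreated plants. Compounds are applied post-emergence to one-leaf-stage weeds as aqueous WP or EC preparations containing 0.5% additive, sprayed at 600 L/ha.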

ALOMY = assay: Pre-emergence action at 320 g/ha against ALOMY; type: in vivo, Alopecurus myosuroides; details: scored visually after about 3 weeks vs untreated controls (100% = plants have died); for pest or weed control at 320 g/ha: Alopecurus myosuroides, 504 h
Procedure, shortened: as §2

AMARE [7] = assay: Pre-emergence action against AMARE, 1280 g/ha; type: in vivo, Amaranthus retroflexus; details: scored visually after about 3 weeks vs untreated controls (100% = plants have died); for pest or weed control at 1280 g/ha: Amaranthus retroflexus, 504 h
Procedure, shortened: as §1

POLCO = assay: Pre-emergence action at 320 g/ha against POLCO; type: in vivo, Fallopia convolvulus (Polygonum convolvulus); details: visual scoring after about 3 weeks vs untreated controls; for pest or weed control at 320 g/ha: Fallopia convolvulus, 504 h
Procedure, shortened: as §2

ABUTH = assay: Post-emergence action against ABUTH, 1.28 kg/ha; type: in vivo, Abutilon theophrasti; details: dosage 1280 g/ha, visual rating about 3 weeks after treatment vs untreated controls (100% = plants died)
Procedure, shortened: as §3

STEME [8] = assay: Post-emergence action against STEME, 1.28 kg/ha; type: in vivo, Stellaria media; details: dosage 1280 g/ha, visual rating about 3 weeks after treatment vs untreated controls (100% = plants died)
Procedure, shortened: as §3

SMILES	pest or weed control at 1280 g/ha (ECHCG)	pest or weed control at 1280 g/ha (SETVI [1])	pest or weed control at 320 g/ha (DIGSA)	pest or weed control at 1280 g/ha (POAAN [2])	pest or weed control at 320 g/ha (SETVI [3])	pest or weed control at 1280 g/ha (STEME [4])	pest or weed control at 1280 g/ha (MATIN)	Pre-emergence action against ECHCG (ECHCG)	Pre-emergence action against SETVI (SETVI [1])	Pre-emergence action against DIGSA in % (DIGSA)	Pre-emergence action against POAAN (POAAN [2])	Pre-emergence action against SETVI in % (SETVI [3])	Pre-emergence action against STEME (STEME [4])	Pre-emergence action against MATIN (MATIN)	Pre-emergence action against AMARE in % (AMARE [5])	Post-emergence action against POAAN (POAAN [6])	Pre-emergence action at 320 g/ha against ALOMY in % (ALOMY)	Pre-emergence action against AMARE (AMARE [7])	Pre-emergence action against POLCO in % (POLCO)	Post-emergence action against STEME (STEME [8])	also measured
C=CCNC(=O)COc1nn(-c2ccccc2F)c(-c2ccc(F)nc2)c1Br [Example X-001, N-Allyl-2-{[4-bromo-1-(2-fluorophenyl)-5-(6-fluoropyridin-3-yl)-1H-pyrazol-3-yl]oxy}acetamide]	100%	100%	100%	100%	100%	100%	90%														pest or weed control at 320 g/ha (AMARE [5]): 90%; pest or weed control at 1280 g/ha (POAAN [6]): 100%; pest or weed control at 320 g/ha (ALOMY): 100%; pest or weed control at 1280 g/ha (AMARE [7]): 100%; pest or weed control at 320 g/ha (POLCO): 90%
COC(=O)CNC(=O)COc1nn(-c2ccccc2F)c(-c2ccc(F)nc2)c1Br [Example X-002]								90%	100%	100%	100%	100%	100%	90%	100%	100%	100%	100%	100%	90%	Post-emergence action against ABUTH (ABUTH): 90%
CS(=O)(=O)NC(=O)COc1nn(-c2ccccc2F)c(-c2ccc(F)nc2)c1Br [Example X-004]								100%	100%	100%	100%	100%	100%	100%	90%	100%	100%	100%	90%	100%	
CN(C)S(=O)(=O)NC(=O)COc1nn(-c2ccccc2F)c(-c2ccc(F)nc2)c1Br [Example X-005]								100%	100%	100%	100%	100%	100%	100%	100%	100%	100%	100%	90%	90%	Post-emergence action against ABUTH (ABUTH): 90%
COC(=O)COc1nn(-c2ccc(F)cc2)c(-c2ccc(F)nc2)c1Br [VII-002]								100%	100%	100%	100%	90%	100%	90%	100%	100%	90%	100%	100%	90%	Post-emergence action against ABUTH (ABUTH): 90%
O=C(O)COc1nn(-c2ccccc2F)c(-c2ccc(F)nc2)c1Br [VII-003, {[4-Bromo-1-(2-fluorophenyl)-5-(6-fluoropyridin-3-yl)-1H-pyrazol-3-yl]oxy}acetic acid]	100%	100%	100%	100%	100%	100%	100%													100%	pest or weed control at 320 g/ha (AMARE [5]): 100%; pest or weed control at 1280 g/ha (POAAN [6]): 100%; pest or weed control at 320 g/ha (ALOMY): 100%; pest or weed control at 1280 g/ha (AMARE [7]): 100%; pest or weed control at 320 g/ha (POLCO): 90%
COC(=O)C(C)Oc1nn(-c2ccccc2)c(-c2ccc(F)nc2)c1Br (centres unmarked) [VII-014]								90%	100%	100%	100%	100%	100%	90%	90%	100%	100%	100%	90%	90%	
COC(=O)C(C)Oc1nn(-c2ccccc2)c(-c2ccc(F)nc2)c1Cl (centres unmarked) [VII-023, Methyl 2-{[4-chloro-5-(6-fluoropyridin-3-yl)-1-phenyl-1H-pyrazol-3-yl]oxy}propanoate]	100%	100%	100%	100%	100%	100%	90%													100%	pest or weed control at 320 g/ha (AMARE [5]): 100%; pest or weed control at 1280 g/ha (POAAN [6]): 100%; pest or weed control at 320 g/ha (ALOMY): 100%; pest or weed control at 1280 g/ha (AMARE [7]): 100%; pest or weed control at 320 g/ha (POLCO): 100%
O=C(O)COc1nn(-c2ccccc2F)c(-c2ccnc(F)c2)c1Br [VIII-004]								100%	100%	100%	100%	90%	100%	100%	100%	100%	100%	100%	90%	100%	
